Test results reported in US10907219B2, “Compositions and methods for controlling cellular function” (STC.UNM, priority 2014, dated 2021).

Assays:
Assay type in all cases: cell-based
[1] = tested on: myr-ABI and PYL-eGFP-Tiam1 in CHO cells; assay: H2O2-induced ruffle formation (Tiam1 membrane localization)
Excerpt: To further investigate whether a complex biological process can be triggered by H2O2-induced protein dimerization, we examined the membrane ruffle formation resulting from localized Rho GTPase activation. Tiam1 is a guanine exchange factor for Rac, a member of Rho GTPase. The membrane translocation of Tiam1 activated Rac signaling pathway and induced ruffle formation, which is involved in cell migration and morphogenesis. We constructed an ABA-inducible Tiam1 membrane localization system, which consists of DNA plasmids encoding the membrane-localized ABI (myr-ABI; Liang et al., 2011, Sci. Signal. 4, rs2) and the cytoplasmic eGFP/PYL-fused Tiam1 (PYL-eGFP-Tiam1) (FIG. 2a). CHO cells were transfected with these plasmids for 24 hours and then incubated for one hour without additive, or with 10 μM of ABA, ABA-HP or ABA-HP plus 10 eq of H2O2. The ruffle formation in cells was analyzed by the confocal microscopy.
Ruffle generation experiment: CHO were seeded in 24-well plates at 50 K/well with coverslip for 24 hours. 0.1 μg PYL-eGFP-Tiam1 and 0.1 μg myr-ABI (FIG. 2a, iii) of DNA plasmid were used for each well, with 30 μL of Opti-MEM (Life Technologies, Carlsbad, Calif.) and 1.8 μL PEI. After incubation at room temperature for 15 min, the mixture was added to the cells and cultured for 24 hours. […]

[2] = tested on: NES-ABI and PYL-eGFP in CHO cells; assay: H2O2-induced ABA-mediated eGFP nuclear exporting (NES localization)
Method: Various cellular events are regulated by the dynamic sub-cellular translocation of proteins. To test if protein translocation can be controlled by H2O2, we used a known ABA-inducible eGFP nuclear exporting system consisting of NES-ABI and PYL-eGFP DNA constructs (FIG. 2a; Liang et al., 2011, Sci. Signal. 4, rs2). CHO cells were transfected with both plasmids for 24 hours and then incubated without additive, or with 10 μM of ABA, ABA-HP, or ABA-HP plus 10 eq of H2O2 for one hour.
NES localization experiments: CHO cells were seeded in 24-well plates at 50 K/well with coverslip for 24 hours. 0.4 μg NES-ABI and 0.2 μg eGFP-PYL (FIG. 2a, ii) of DNA plasmid were used for each well, with 30 μL of Opti-MEM (Life Technologies, Carlsbad, Calif.) and 1.8 μL of PEI. After incubation at room temperature for 15 min, the mixture was added to the cells and cultured for 24 hours. Then, 10 μM ABA-HP was added to the cells 10 minutes prior to the addition of 10 μM ABA and 100 μM of H2O2, or 10 μM GA-HP was added to the cells 10 minutes prior to the addition of 10 μM GA-AM and 100 μM of H2O2. Slides were made 30 minutes after addition of compounds and images were taken the next day.
An Axio Observer D1 fluorescent microscope (Carl Zeiss AG, Oberkochen, Germany) outfitted with HBO 100 microscopy illumination system (Carl Zeiss AG, Oberkochen, Germany; GFP: excitation 470/40 and emission 525/50) was used to analyze GFP expression and NES localization. A 20× objective was used to analyze GFP expression. A 63× objective was used for NES localization.

[3] = tested on: HEK 293T inducible EGFP reporter cell line (VP-PYL and GAL4DBD-ABI); assay: Light-induced EGFP expression
Excerpt: To confirm that the photo-regenerated ABA is biologically functional, we determined whether it can be employed to induce PYL-ABI dimerization in an ABA-inducible transcriptional activation system using an established HEK 293T inducible EGFP reporter cell line. The cell line was created with both the ABA-responsive split transcriptional activator DNA fragment (VP-PYL and GAL4DBD-ABI linked by IRES; Liang et al., 2011, Sci. Signal. 4, rs2) and an inducible EGFP DNA fragment (with 5×UAS and the IL-2 minimal promoter) inserted into the genome (FIG. 21A). EGFP expression was activated through the recruitment of VP16AD to the EGFP gene in the presence of ABA. 24 hours after plating the cells, 10 μM of ABA, pre-irradiated ABA-DMNB products, or non-irradiated ABA-DMNB were separately added to the cells and incubated for an additional eight hours. EGFP expression was then determined using a fluorescence microscopy.
Cell culture and transfection: CHO cells and HEK 293T EGFP reporter cells (provided by Dr. Gerald R. Crabtree) were cultured in Dulbecco's modified Eagle's medium (DMEM; GIBCO, Life Technologies, Carlsbad, Calif.) with 10% FBS (Atlanta Biologicals, Inc., Norcross, Ga.), 1×GlutaMAX (GIBCO, Life Technologies, Carlsbad, Calif.), and 1× penicillin/streptomycin (Pen/Strep; GIBCO, Life Technologies, Carlsbad, Calif.). 15,000-50,000 ells were plated in a 24-well or 8-well plate for 24 hours before transfection. DNA constructs (0.1 μg-0.5 μg) were added to 50× (v/w) Opti-MEM (GIBCO, Life Technologies, Carlsbad, Calif.), and then 3× (v/w) PEI (Polysciences, Inc., Warrington, Pa.) was mixed with the DNA. The mixture was incubated for 20 minutes at room temperature before adding it to cell cultures. The cells were grown for one day after transfection before experiments were performed.
Photo-irradiation: Irradiation at 365 nm was performed with an Axio Observer (Carl Zeiss AG, Oberkochen, Germany) microscope with an HBO103 W/2 mercury arc lamp (Carl Zeiss AG, Oberkochen, Germany). Irradiation was performed by using a DAPI filter (Carl Zeiss AG, Oberkochen, Germany), set with peak excitation at 365 nm (power density: 23 mW cm^2) and a spectral width of 50 nm. No objective lens was used for whole-well irradiation, which created an area of illumination that nearly completely covered one well of a 24-well plate. Light was transmitted through the bottom of the well of polystyrene plate. Irradiation at 405 nm was performed by using an adjustable focus violet purple laser pointer (LazerPoint SKU 0733579), with an excitation wavelength of 405 nm and 1000 mW intensity positioned 8 cm above the bottom of either a 96-well or 24-well plate and irradiated through the polystyrene lid. […]

[4] = 10 μM plus 10 eq of H2O2, CHO cells
[5] = 10 μM, compound alone, CHO cells
[6] = 10 μM, not irradiated, eight hours

CC1=CC(=O)CC(C)(C)[C@@]1(O)/C=C/C(C)=C\C(=O)OCc1ccc(B2OC(C)(C)C(C)(C)O2)cc1 [ABA-HP]
ruffle formation [1, 4]: showed obvious ruffle formation | sub-cellular location of PYL-eGFP [2, 4]: caused rapid nuclear export | sub-cellular location of PYL-eGFP [2, 5]: did not change the sub-cellular location of eGFP-PYL

COc1cc(COC(=O)/C=C(C)\C=C\[C@@]2(O)C(C)=CC(=O)CC2(C)C)c([N+](=O)[O-])cc1OC [ABA-DMNB]
eGFP expression [3, 6]: did not induce EGFP expression | eGFP expression ([3]; 10 μM, pre-irradiated (pre-photocleaved) products, eight hours): induced EGFP production | eGFP expression ([3]; irradiated in cell culture, 365 nm): showed EGFP expression

CC1=CC(=O)CC(C)(C)C1(O)/C=C/C(C)=C\C(=O)O (stereo not drawn) [ABA, abscisic acid, reference compound]
ruffle formation [1, 5]: showed obvious ruffle formation | eGFP expression [3, 6]: induced EGFP production | sub-cellular location of PYL-eGFP [2, 5]: localized out of the nucleus
